Patent US12285432B2, “Treatment of hair loss disorders with deuterated JAK inhibitors” (Sun Pharmaceutical Industries, Inc., priority 2021, dated 2025)
Read-outs that look alike come from different tables or passages of the source.

Columns and labels:
[1] = Drug-drug interaction study of Compound (I) (CTP-543) and itraconazole in healthy volunteers, plasma pharmacokinetics; type: in vivo, human
alopecia areata = assay: Human clinical trials of CTP-543 in patients suffering from alopecia areata; type: in vivo
[2] = cited from earlier work
[3] = 12 mg Compound (I) alone (Reference), healthy volunteers, plasma
[4] = 12 mg Compound (I) with vs without itraconazole
[5] = 10 mg ruxolitinib with vs without ketoconazole 200 mg twice a day, healthy volunteers

Row | Compound | AUC(0-Tlast) [1, 3] [ng·h/mL] | AUC(0-∞) [1, 3] [ng·h/mL] | AUC(0-Tlast) ([1]; 12 mg Compound (I) with itraconazole 200 mg (Test), healthy volunteers, plasma) [ng·h/mL] | increase in the AUC as a result of dosing with itraconazole [1, 4] [%] | increase in the Cmax as a result of dosing with itraconazole [1, 4] [%] | half-life ([1]; Compound (I) without itraconazole) [h] | Cmax ([1]; human, plasma, 12 mg) [ng/mL] | half-life ([1]; human, plasma, 12 mg, read-out: t1/2 (converted)) [h] | half-life ([1]; human, plasma, read-out: half-life (converted)) [h] | hair growth in patients suffering from alopecia areata (alopecia areata) | half-life ([2]; 10 mg ruxolitinib dosed with ketoconazole) [h] | AUC increase as a result of dosing with ketoconazole [2, 5] [%] | Cmax increase as a result of dosing with ketoconazole [2, 5] [%] | half-life ([2]; 10 mg ruxolitinib without ketoconazole) [h]
1 | [2H]C1([2H])C([C@@H](CC#N)n2cc(-c3ncnc4[nH]ccc34)cn2)C([2H])([2H])C([2H])([2H])C1([2H])[2H] [Compound (I), (R)-3-(4-(7H-pyrrolo[2,3-d]pyrimidin-4-yl)-1H-pyrazol-1-yl)-3-(cyclopentyl-2,2,3,3,4,4,5,5-d8)propanenitrile] | 1326.80 | 1332.48 | 1679.53 | ~27 | ~13 | 4.18 | 266 | 4.13 | 4.62 | stimulate hair growth | – | – | – | –
2 | N#CC[C@H](C1CCCC1)n1cc(-c2ncnc3[nH]ccc23)cn1.O=P(O)(O)O [ruxolitinib, (R)-3-(4-(7H-pyrrolo[2,3-d]pyrimidin-4-yl)-1H-pyrazol-1-yl)-3-cyclopentylpropanenitrile phosphate] | – | – | – | – | – | – | – | – | – | – | 6.0 | 91 | 33 | 3.7
